Measured values from patent US20140323457A1, “BETA-O/S/N FATTY ACID BASED COMPOUNDS AS ANTIBACTERIAL AND ANTIPROTOZOAL AGENTS” (LUDWIG-MAXIMILIANS-UNIVERSITÄT MÜNCHEN, priority 2011, published 2014).
Values after ≈ are worked out from the molar mass of the structure shown. Read-outs that look alike come from different tables or passages of the source.

Key:
[1] = tested on: S. aureus strain NCTC 8325; test: minimal inhibiting concentration (MIC) in liquid bacterial culture; assay type: cell-based; conditions: overnight 37° C.
Method: (§1) 1 ml of an appropriate bacterial broth for the standard laboratory S. aureus strain NCTC 8325 were inoculated with 1*10^6 cfu. The cultures were kept overnight at 37° C. with gentle shaking 300 rpm in the presence of compounds AVU1Acid, AVU1AAc, AVU1AA or VK273 according to the present invention at different concentrations or dimethyl sulfoxide (DMSO) as control. Different beta-lactone virulence inhibitors were used as reference compounds. Following overnight incubation the optical density was measured in order to determine the minimal inhibiting concentration (MIC), which is defined as the lowest concentration of an antimicrobial that will inhibit the visible growth of a microorganism after overnight incubation. A 100 μl fraction of the supernatant of the grown bacterial cultures was subsequently analysed for the content of secreted bacterial hemolysins by addition of sheep red blood cells (10% v/v in PBS) and the measurement of the optical density at 410 nm after 30 min incubation at 37° C.

[2] = tested on: S. aureus strain NCTC 8325; test: liquid culture-based hemolysis assay (secreted hemolysins, sheep red blood cells); assay type: cell-based
Method: The inhibition of hemolysin production has thus been further analysed in liquid bacterial cultures in order to evaluate their potential effects on bacterial growth simultaneously. Besides AVU1Acid, AVU1AAc, AVU1AA and VK273 the following further compounds were tested in liquid bacterial cultures:
as §1
The following results were obtained in further liquid culture-based hemolysis assays. Since the assays were performed at different times with different charges of sheep red blood cells AVU1 has been tested as a reference substance in each assay. The resulting EC50 values determined for the tested compounds have to be assessed with respect to the EC50 value determined for AVU1.

S. aureus NCTC 8325 = test: agar plate-based hemolysis assay on sheep blood agar; assay type: cell-based; conditions: FIG. 1; over night at 37° C.
Description: Several compounds of the invention as well as reference compounds have been tested against S. aureus NCTC 8325 on sheep blood agar. Hemolysins are key virulence factors of S. aureus that contribute to the pathogenicity of these bacteria. The production of hemolysins can be easily monitored by lysis of sheep blood and generation of a clear zone around the bacterial colonies on the agar plate. Hemolysins are co-regulated with the majority of important virulence factors and have been qualified in previous studies as a reliable measure of agr quorum sensing regulated virulence (T. Böttcher, S. A. Sieber, J Am Chem Soc 2008, 130, 14400).
Agar plate-based hemolysis was tested on 5% sheep blood agar plates (Heipha Diagnostika, Eppelheim, Germany). Sterile circles of Whatman® cards (No. 1, Schleicher & Schuell) with 5.5 mm diameter were placed on the agar plates and inoculated with 2.5 μL of the corresponding lactone/DMSO and 2.5 μL stationary phase culture of S. aureus NCTC 8325 diluted to OD600=0.13. The plates were incubated over night at 37° C. and the diameters of the zones around the bacterial colonies were precisely measured using a vernier caliper. Doses of the compounds required to produce the half maximum effect (ED50) were calculated from curve fittings by Microcal™ Origin 6.0.

[3] = biological target: T1, CIpP protease from S. aureus NCTC8325 (SaCIpP) (Staphylococcus aureus, UniProt Q2G036); test: in vitro inhibition of recombinant S. aureus CIpP with SLY-AMC substrate; assay type: biochemical; conditions: inhibitor 2 mM (1000×), 30 min RT; SLY-AMC 200 μM; FIG. 3
T1 construct: made in house; host or cells: E. coli
T1 sequence (Q2G036 1-195): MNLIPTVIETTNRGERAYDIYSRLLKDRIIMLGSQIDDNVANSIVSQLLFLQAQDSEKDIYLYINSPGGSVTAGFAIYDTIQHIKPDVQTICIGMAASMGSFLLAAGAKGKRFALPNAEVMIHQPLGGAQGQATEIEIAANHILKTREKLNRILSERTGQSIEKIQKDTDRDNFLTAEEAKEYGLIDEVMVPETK
Method: The CIpP protease from S. aureus NCTC8325 (SaCIpP) was recombinantly overexpressed in E. coli and purified in order to investigate enzyme inhibition using SLY-AMC (N-succinyl-Leu-Tyr-7-amido-4-methylcoumarin) as fluorogenic model substrate.
Precisely, 9 μl of SaCIpP in buffered solution (final concentration 0.05 mg/ml, 2 μM; buffer: 100 mM NaCl, 20 mM Tris, pH 7.0) were incubated in the presence of 1 μl of various inhibitors (final concentration 2 mM=1000×) for 30 min at room temperature (RT). Subsequently, SLY-AMC was added to a final concentration of 200 μM and the increase in fluorescence due to enzymatic substrate proteolysis was measured using a TECAN GENios Pro™ plate reader at 380/440 nm (excitation/emission) at time intervals of 60 s over 40 min at 37° C. The enzymatic activity was determined as the slope of fluorescence (2=440 nm) over time. As positive controls, the in vivo active beta-lactone compound AVU1 (“U1”; WO 2009/106211) and the in vitro potent CIpP beta-lactone inhibitor D3 (WO 2009/106211) were employed.

[4] = Assay 4, hemolysin production, assess relative to AVU1
[5] = Staphylococcus aureus, NCTC8325, Assay 3, read-out: MIC
[6] = Staphylococcus aureus, NCTC8325, Erythrocyte, Assay 3, hemolysin production, assess relative to AVU1
[7] = Staphylococcus aureus, NCTC8325, Assay 1, read-out: MIC
[8] = Staphylococcus aureus, NCTC8325, Erythrocyte, Assay 1, hemolysin production
[9] = Assay 2, hemolysin production, assess relative to AVU1

Compound `C#CCCCCCCC[C@H](C(=O)O)[C@H](O)CCc1ccc(C2(C(F)(F)F)N=N2)cc1` (relative stereo) [JS-11_1, (3R*,2S*)-3-Hydroxy-2-(8-noninyl)-5-(4-(3-trifluoromethyl-3H-diazirinyl)-phenyl)-pentanoic acid] has an MIC ([1]; Assay 4) of 10 to 50 µM and an EC50 [2, 4] of 3.6 µM.
Compound `C#CCCCCCCC[C@@H](C(=O)O)[C@H](O)CCc1ccc(C2(C(F)(F)F)N=N2)cc1` (relative stereo) [JS-11_2, (3R*,2R*)-3-Hydroxy-2-(8-noninyl)-5-(4-(3-trifluoromethyl-3H-diazirinyl)-phenyl)-pentanoic acid] has an MIC ([1]; Assay 4) of 10 to 50 µM and an EC50 [2, 4] of 2.2 µM.
In the case of `C#CCCCCCCC[C@H](C(=O)OC)[C@H](O)CCc1ccc(C2(C(F)(F)F)N=N2)cc1` (relative stereo) [JS-14_1, Methyl (3R*,2S*)-3-Hydroxy-2-(8-noninyl)-5-(4-(3-trifluoromethyl-3H-diazirinyl)-phenyl)-pentanoate], the MIC ([1]; Assay 4, read-out: MIC) is reported as >1000 µM and the EC50 [2, 4] is reported as 166 µM.
With `C#CCCCCCCC[C@H](C(N)=O)[C@H](O)CCc1ccc(C2(C(F)(F)F)N=N2)cc1` (relative stereo) [JS-14_1Amid, (3R*,2S*)-3-Hydroxy-2-(8-noninyl)-5-(4-(3-trifluoromethyl-3H-diazirinyl)-phenyl)-pentanamide] the MIC ([1]; Assay 4, read-out: MIC) was >1000 µM and the EC50 [2, 4] was 2.3 µM.
With `C#CCCCCCCC[C@@H](C(=O)OC)[C@H](O)CCc1ccc(C2(C(F)(F)F)N=N2)cc1` (relative stereo) [JS-14_2, Methyl (3R*,2R*)-3-Hydroxy-2-(8-noninyl)-5-(4-(3-trifluoromethyl-3H-diazirinyl)-phenyl)-pentanoate] the MIC ([1]; Assay 4, read-out: MIC) was >1000 µM and the EC50 [2, 4] was 64 µM.
For `C#CCCCCCCC[C@@H](C(N)=O)[C@H](O)CCc1ccc(C2(C(F)(F)F)N=N2)cc1` (relative stereo) [JS-14_2Amid, (3R*,2R*)-3-Hydroxy-2-(8-noninyl)-5-(4-(3-trifluoromethyl-3H-diazirinyl)-phenyl)-pentanamide], the MIC ([1]; Assay 4, read-out: MIC) was >1000 µM and the EC50 [2, 4] was 2.8 µM.
In the case of `C=CCCCCCCC[C@@H](C(N)=O)[C@H](O)CCCc1ccccc1` (relative stereo) [VK375, (2R*,3R*)-3-Hydroxy-2-(non-8-enyl)-6-phenylhexanamide], the MIC ([1]; Assay 3, read-out: MIC) is reported as >1000 µM, the MIC [1, 5] is reported as > 1000 µM and the EC50 [2, 6] is reported as 1 to 5 µM.
In the case of `NC(=O)[C@H](CCc1ccccc1)[C@H](O)CCc1ccccc1` (relative stereo) [VK403-1, (2R*,3R*)-3-Hydroxy-2-(2-phenylethyl)-5-phenylpentanamide], the MIC ([1]; Assay 3, read-out: MIC) is reported as >1000 µM, the MIC [1, 5] is reported as > 1000 µM and the EC50 [2, 6] is reported as 50 to 100 µM.
`CCCCCCCCC[C@@H](C(N)=O)[C@H](O)CCc1ccccc1` (relative stereo) [VK453-1, (2R*,3R*)-3-Hydroxy-2-nonyl-5-phenylpentanamide] was tested, and the MIC ([1]; Assay 2, read-out: MIC) was >1000 µM, the MIC ([1]; Staphylococcus aureus, NCTC8325, Assay 2, read-out: MIC) was > 1000 µM and the EC50 ([2]; Staphylococcus aureus, NCTC8325, Erythrocyte, Assay 2, hemolysin production, assess relative to AVU1) was 1 to 5 µM.
`C=CCCCCCCC[C@@H](C(N)=O)[C@H](O)Cc1ccccc1` (relative stereo) [VK508-3, (2R*,3R*)-3-Hydroxy-2-(non-8-enyl)-4-phenylbutanamide] was tested, and the MIC ([1]; Assay 3, read-out: MIC) was >1000 µM, the MIC [1, 5] was > 1000 µM and the EC50 [2, 6] was 10 to 50 µM.
With `C=CCCCCCCCC(C(=O)O)C(CCc1ccccc1)OC(C)=O` (stereo not shown) [AVU1AAc, 3-acetoxy-2-(non-8-enyl)-5-phenylpentanoic acid] the MIC [1, 7] was 50 to 100 µM (≈ 18 to 36 µg/mL), the EC50 [2, 8] was 2.43 µM and the “inhibition of hemolysis (virulence inhibition) on sheep blood agar” value (shortened to “inhibition of hemolysis”) (S. aureus NCTC 8325) was “high”. For the same compound, the “inhibition of SaCIpP” value [3] was “inhibit SaCIpP at an at least comparable level as the in vivo active beta-lactone reference compound AVU1”.
In the case of `C=CCCCCCCCC(C(=O)SCC(NC(C)=O)C(=O)OC)C(CCc1ccccc1)OC(C)=O` (stereo not shown) [AVU1AAcTE, reference compound], the “inhibition of hemolysis” value (S. aureus NCTC 8325) is reported as “only low efficiency and incomplete inhibition of hemolysis”.
In the case of `C=CCCCCCCCC(C(=O)OC)C(O)CCc1ccccc1` (stereo not shown) [AVU1AME], the “inhibition of hemolysis” value (S. aureus NCTC 8325) is reported as “moderate” and the “inhibition of SaCIpP” value [3] is reported as “inhibit SaCIpP at an at least comparable level as the in vivo active beta-lactone reference compound AVU1”.
For `C=CCCCCCCCC(C(=O)O)C(O)CCc1ccccc1` (stereo not shown) [AVU1Acid, 3-hydroxy-2-(non-8-enyl)-5-phenylpentanoic acid], the MIC [1, 7] was 50 to 100 µM (≈ 15.9 to 31.8 µg/mL), the EC50 [2, 8] was 1.18 µM and the “inhibition of hemolysis” value (S. aureus NCTC 8325) was “potent virulence inhibitors”.
`C=CCCCCCCCC1OC(=O)C1CCc1ccccc1` (stereo not shown) [AVU4, reference compound] was tested, and the MIC [1, 7] was > 1000 µM and the EC50 [2, 8] was 435 µM.
For `C=CCCCCCCC[C@H]1C(=O)O[C@@H]1CCc1cc(F)cc(F)c1` [AVU5, reference compound], the MIC [1, 7] was > 1000 µM and the EC50 [2, 8] was 16.1 µM.
In the case of `C=CCCCCCCC[C@H]1C(=O)O[C@@H]1Cc1ccccc1` [AVU6, reference compound], the MIC [1, 7] is reported as > 1000 µM and the EC50 [2, 8] is reported as 440 µM.
For `C=CCCCCCCC[C@H]1C(=O)O[C@@H]1CCCc1ccccc1` [AVU7, reference compound], the MIC [1, 7] was > 1000 µM and the EC50 [2, 8] was 22 µM.
`C#CCCCCCCCC(C(=O)O)C(O)CCc1ccc(C(=O)c2ccccc2)cc1` (stereo not shown) [JS-64, 5-(4-Benzoylphenyl)-3-hydroxy-2-(8-noninyl)-pentanoic acid] was tested, and the MIC ([1]; Assay 2, read-out: MIC) was >1000 µM and the EC50 [2, 9] was 1 to 5 µM.
For `C#CCCCCCCCC(C(N)=O)C(O)CCc1ccc(C(=O)c2ccccc2)cc1` (stereo not shown) [JS-65, 5-(4-Benzoylphenyl)-3-hydroxy-2-(8-noninyl)-pentanamide], the MIC ([1]; Assay 2, read-out: MIC) was >1000 µM and the EC50 [2, 9] was 1 to 5 µM.
